Source: patent publication US20230355646A1, “AUTOPHAGY ACTIVATOR” (Resonac Corporation, priority 2020, published 2023)

Tested on: human neuroblastoma (SH-SY5Y)
Test: Apoptosis suppressing action caused by amyloid β in human neuroblastoma (Hoechst 33342 staining)
Format: cell-based
Protocol: The proportion of apoptotic cells in human neuroblastoma (SH-SY5Y; obtained from ATCC) in the presence of an autophagy activator was measured by the following test method to evaluate the apoptosis suppressing action of the autophagy activator.
In the following examples and comparative examples, tests were performed by adding amyloid β, which is known to induce cell death called apoptosis of nerve cells due to a decrease in autophagy, to each medium.
SH-SY5Y cells were prepared at a seeding density of 50000 cells/cm^2 and cultured for 24 hours in D-MEM medium/Ham's F-12 medium (manufactured by Sigma-Aldrich) to which 10% fetal bovine serum (manufactured by MP Biomedicals) was added. […]
Thereafter, an aqueous solution of 10 μM Hoechst 33342 (manufactured by Sigma-Aldrich) was added to each SH-SY5Y cell from which the medium was removed, and the cells were allowed to stand at room temperature (25° C.) for 10 minutes. After removing the solution, each SH-SY5Y cell was washed with phosphate buffer (PBS, manufactured by Wako Pure Chemical Industries, Ltd.), and with a fluorescence microscope, the number of cells showing strong apoptosis-like Hoechst fluorescence due to chromatin aggregation (Hoechst (+) cells) was counted. […]

COc1ccc([C@@H]2CC(=O)c3c(O)cc(O[C@@H]4O[C@H](CO[C@@H]5O[C@@H](C)[C@H](O)[C@@H](O)[C@H]5O)[C@@H](O)[C@H](O)[C@H]4O)cc3O2)cc1O [Comparative Example 2, hesperidin]
proportion of apoptotic cells (in words) (SH-SY5Y cells with amyloid β, compared to DMSO and amyloid β of Comparative Example 7): decreased
Proportion of apoptotic cells (SH-SY5Y cells, 30 μM amyloid β present, 10^−2% (V/V) methyl hesperidin or hesperidin, additional ingredient where in the example, 48 hours, relative value, Reference Example 4 = 1.00): 3.76
